The structures appear in SMILES notation. “Also recorded” adds a separate entry of the source.

For series [1] the following is noted: mice, rats and dogs; cited from earlier work.
For series [2] the following is noted: healthy young males, cited from earlier work.
Series [3] deals with muscular dystrophy. Conditions: Phase I through III trials, Japan; cited from earlier work.
Series [4] has as its system primary neuronal chromaffin cells. Conditions: cited from earlier work.
Series [5] has as its system β-secretase activity as measured by the APP-derived CTFβ fragment. Kind of series: guinea pig brain CTFβ (β-secretase activity) after icv infusion. Format: in vivo. The following applies: 0.15 mg/kg/day infused for 7 days; western blot. On the procedure:
To better evaluate the effects of CA074Me on β-secretase activity, relative brain levels of CTRβ were assessed by western blots. The CTRβ fragment results from processing of APP at the β-secretase site, which produces the C-terminal β-secretase fragment (CTFβ) of 12 kDA on SDS-PAGE gels.
Brains from animals described in relation to FIG. 10 were extracted and analyzed for CTFβ by […].
Cathepsin B inhibitors were administered directly into the brain by icy infusion with minipumps in time course studies at different doses. Guinea pigs were infused with compounds using Alzet pumps (2.5 μl/hr, with compounds at 1 mg/ml in saline) for 7 and 30 days, and other times. This initial dose of compound was selected because E64d and CA074Me are effective at this dose. Each treatment group consisted of eight to ten guinea pigs, including the vehicle control group.
A general note: Immunoblotting shows a protein as a band on a membrane.

The test system of series [6] is Aβ40 production from endogenous APP in regulated secretory vesicles isolated from chromaffin cells. Kind of series: Aβ production from endogenous APP in isolated regulated secretory vesicles. Type of series: biochemical, bovine. The following applies: inhibitor 10 μM. On the procedure: Regulated secretory vesicles isolated from chromaffin cells naturally produce Aβ from endogenous APP when incubated at 37° C. in vitro for several hours. These vesicles can be used as an in vitro screen for compounds that inhibit Aβ production. […] The effects of cathepsin B inhibitors, CA074 (10 μM, ♦) and CA074Me (10 μM, □), on the production of Aβ40 from endogenous APP in regulated secretory vesicles isolated from chromaffin cells was evaluated in time course studies. […] Each inhibitor was tested in triplicate; values represent x±sem (*statistically significant with p<0.05).
Cathepsin B compounds that were effective inhibitors of endogenous II-secretase activity were tested for inhibition of Aβ peptide production in regulated secretory vesicles. The effect of reversible cathepsin B compounds on production of Aβ40 and Aβ42 in isolated chromaffin vesicles was tested by incubating candidate inhibitors (at 10 μM) with lysed chromaffin vesicles under identical conditions as for the β-secretase assay for 8 hours. […] After incubation, Aβ40 and Aβ42 was measured by ELISA assays, as described for measurement of Aβ peptides in brain extracts. Each candidate inhibitor was assayed in triplicate.

The test system of series [7] is primary neuronal chromaffin cells. Kind of series: Aβ secretion by primary neuronal chromaffin cell cultures. The following applies: 50 μM for 18 hours. Type of series: cell-based, bovine. How it is done:
Neuronal bovine chromaffin cells in primary culture can be used to select compounds that affect Aβ in the regulated or constitutive pathway. Regulated secretory Aβ is determined by measuring Aβ in the cell culture media after inducing the cells to secrete using a triggering stimulus, such as KCl. The constitutive secretory Aβ is determined by measuring Aβ in cell culture media (also called “conditioned media”) from resting cells. […] Regulated secretion was induced by exposing the cells to KCl (50 mM) for 15 minutes. […] Treated cells (+) received CA074Me (50 μM) for 18 hours. The Aβ40 produced by regulated secretion of the treated cells is about 50% less than that produced from regulated secretion by untreated cells. […]
Reversible cathepsin B compounds that inhibited Aβ production in isolated secretory vesicles by at least 50% at 10 μM were tested for reduction of Aβ secreted from the regulated secretory pathway of primary neuronal chromaffin cells. […] Cells were incubated with inhibitors (first at 50 μM) for about 18 hours, and then KCl-induced secretion of Aβ from the regulated secretory pathway was analyzed, by incubating cells in 50 mM KCl for about 15 minutes and measurement of Aβ peptides in the secretion medium Inhibitor effects were more readily detected during increased rates of Aβ production, which can be induced by treatment of cells with PMA (phorbol myristate acetate, 100 nM). […]

Turning to `CCOC(=O)[C@H]1O[C@@H]1C(=O)N[C@@H](CC(C)C)C(=O)NCCC(C)C` [E64d], the “therapeutic window / LD50” value in series [1] is on record as “excellent therapeutic window”. Besides, in series [2] (5 mg/kg/day oral), the “pulse, resting blood pressure, body temperature, grip force” value is reported as “No change” and the “subjective or objective symptoms, clinical tests” value is on record as “no change in subjective or objective symptoms or clinical tests”. In series [2] (oral), the absorption result was “good absorption”, the accumulation entry was “no accumulation occurred” and the “total dose collected in urine” value was “about 30%”. In addition, the “efficacy in muscular dystrophy” value in series [3] was “lack of efficacy”.
For `CCCNC(=O)[C@H]1O[C@@H]1C(=O)N[C@H](C(=O)N1CCC[C@H]1C(=O)OC)[C@@H](C)CC` [CA074Me], the “CTFβ production in primary chromaffin cell cultures” value in series [4] is listed as “reduced CTFβ production”. In series [5], the “decrease in the amount of brain CTFβ” value was 50%. Further, the “effect on Aβ production in isolated regulated secretory vesicles” value in series [6] is given as “inhibited; also recorded: block Aβ production”. The “reduction of Aβ40 produced by regulated secretion” value in series [7] (KCl (50 mM) 15 minutes, vs untreated cells) was “about 50%”. Moreover, the “Aβ40 produced by constitutive secretion vs untreated cells” value in series [7] (resting cells) is listed as “the same”.
